The record followed here is US11299457B2, “Chemical compounds” (GlaxoSmithKline Intellectual Property (No. 2) Limited, priority 2012, dated 2022).

The test system of test [1] is castrated male rat (ORX): levator ani muscle and prostate. Put plainly: Castrated male rat model (ORX rat). It counts as in vivo. The conditions noted are these: for prostate sparing: defined as at least a 2:1 ratio of levator ani ED50 to prostate ED50; for levator ani hypertrophy: favorable = 30% or greater increase in levator ani weight vs vehicle-treated castrates, dosed orally at up to 10 mg/kg/day. The text has this:
Castrated Male Rat Model (ORX Rat)
The activity of the compounds of the present invention as modulators of the androgen receptor was investigated using a castrated male rat model (ORX) as described in C. D. Kockakian, Pharmac. Therap. B 1(2), 149-177 (1975); C. Tobin and Y. Joubert, Developmental Biology 146, 131-138 (1991); J. Antonio, J. D. Wilson and F. W. George, J Appl. Physiol. 87(6) 2016-2019 (1999)) the disclosures of which herein are included by reference.
Androgens have been identified as playing important roles in the maintenance and growth of many tissues in both animals and humans. Muscles, like the levator ani and bulbocavernosus, and sexual accessory organs, such as the prostate glands and seminal vesicles have high expression levels of the androgen receptor and are known to respond quickly to exogenous androgen addition or androgen deprivation through testicular ablation. Castration produces dramatic atrophy of muscle and sexual accessory organs; whereas the administration of exogenous androgens to the castrated animal results in effective hypertrophy of these muscles and sexual accessory organs. Although the levator ani muscle, also known as the dorsal bulbocavernosus, is not ‘true skeletal muscle’ and definitely sex-linked, it is reasonable to use this muscle to screen muscle anabolic activities of test compounds because of its androgen responsiveness and simplicity of removal.
Male Sprague-Dawley rats weighing 160-180 grams were used in the assay. The rats were singly caged upon receiving and throughout the study. Bilateral orchidectomies were performed in sterilized surgical conditions under isoflurane anesthesia. An anteroposterior incision was made in the scrotum. The testicles were exteriorized and the spermatic artery and vas deferens were ligated with 4.0 silk 0.5 cm proximal to the ligation site. The testicles then were removed by a surgical scissors distal to the ligation sites. The tissue stumps were returned to the scrotum, the scrotum and overlying skin were closed by a surgical stapler. The Sham-ORX rats underwent all procedures except ligation and scissors cutting. The rats were assigned randomly into study groups 7-10 days post surgery based on the body weight.
Dihydrotestosterone (DHT) and the standard SARM, S-22, (J. Pharma. Exper. Thera. Vol 315, p. 230) were used as a positive control (1-10 mg/kg s.c. for DHT and 0.1 to 3 mg/kg p.o. for S-22). Compounds of the current invention were administered subcutaneously or orally for 4-28 days. Alternatively, some compounds of the current invention were administered subcutaneously or orally for 7-49 days. The rats were weighed daily and doses were adjusted accordingly. The general well being of the animal was monitored throughout the course of the study.
At the end of the study, the rats were euthanized in a CO2 chamber. The ventral prostate glands (VP), seminal vesicles (SV), levator ani muscle (LA) and bulbocavernosus (BC) were carefully dissected. The tissues were blotted dry; the weights were recorded, and then saved for histological and molecular analysis. The VP and SV weights serve as androgenic indicators and LA and BC as anabolic indicators. The ratio of anabolic to androgenic activities was used to evaluate the test compounds. Serum luteinizing hormone (LH), follicle stimulating hormone (FSH) and other potential serum markers of anabolic activities were also analyzed.
In general, preferred compounds show levator ani hypertrophy and very little prostate stimulation.
The compounds shown in Examples 9, 20, 26, 27, 33, 51, 52, and 53 were tested in the castrated male rate model essentially as described above. Test compounds were employed in free or salt form. […] Prostate sparing was defined as at least a 2:1 ratio of levator ani ED50 to prostate ED50. The ED50 is defined as 50% of the maximum response above the vehicle treated castrate level. […]

In test [2] the target is androgen receptor (MBP-hAR-LBD, rat androgen ligand binding domain) (Rattus norvegicus (Rat), UniProt P15207). The test can be described thus: Androgen receptor fluorescence polarization assay. The conditions noted are these: maximum of curve fit; max/min compared to absence of compound and 10^-5 M control compound. How it is done: The androgen receptor fluorescence polarization assay is used to investigate the interaction of the compounds with the androgen receptor.
Compounds are added to the 384 well black low-volume plates to a final volume of 0.1 μL. DTT and DMSO are added to the chilled assay buffer just before beginning assay. Sufficient Fluormone AL Red and AR-LBD are defrosted on ice and added to the chilled buffer in a glass tube to give a final concentration of 1 nM and 100 nM, (for current batch) respectively. A volume of 10 μL of the assay mix is added to compound plates with a multidrop. […] The plates are counted in a Discovery Analyst with suitable 535 nm excitation and 590 nm emission interference filters (Dichroic 561 nM). […] Test compounds are dissolved and diluted in DMSO. Compounds are assayed in singlicate, a four parameter curve fit of the following form being applied
[formula] where a is the minimum, b is the Hill slope, c is the IC50 and d is the maximum.
Data is presented as the mean pIC50 with the standard error of the mean of n experiments.
(Fluorescence polarisation rises when a labelled molecule tumbles more slowly, as on binding a larger partner.)

androgen receptor (MBP-hAR-LBD, rat androgen ligand binding domain), sequence (P15207 651-882): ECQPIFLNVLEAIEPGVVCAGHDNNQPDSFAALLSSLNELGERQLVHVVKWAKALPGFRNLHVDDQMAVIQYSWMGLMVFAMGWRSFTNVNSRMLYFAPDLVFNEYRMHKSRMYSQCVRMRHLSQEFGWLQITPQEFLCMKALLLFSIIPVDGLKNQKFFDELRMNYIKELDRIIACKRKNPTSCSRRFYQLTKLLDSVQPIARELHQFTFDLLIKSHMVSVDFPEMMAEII

`CC(CS(C)(=O)=O)n1ccc2c(C(F)(F)F)c(C#N)ccc21` (stereo not shown) [Example 26, 1-(1-(Methylsulfonyl)propan-2-yl)-4-(trifluoromethyl)-1H-indole-5-carbonitrile]: in test [1], the prostate sparing result is reported as “spared the prostate” and the levator ani hypertrophy result is “favorable levator ani hypertrophy”. `C[C@H](n1ccc2c(C(F)(F)F)c(C#N)ccc21)C(C)(C)O` [Example 21, (S)-1-(3-Hydroxy-3-methylbutan-2-yl)-4-(trifluoromethyl)-1H-indole-5-carbonitrile]: in test [2], the “% Max” value is listed as 100%. In the case of `CC[C@H](c1cncc(C#N)c1)n1ccc2c(C#N)c(C#N)ccc21` [Example 51, (R)-1-(1-(5-Cyanopyridin-3-yl)propyl)-1H-indole-4,5-dicarbonitrile], in test [1], the prostate sparing result is “spared the prostate” and the levator ani hypertrophy entry was “favorable levator ani hypertrophy”. The corresponding values for `C[C@@H](n1ccc2c(Cl)c(C#N)ccc21)[C@](C)(O)C(F)(F)F` [Example 52, 4-Chloro-1-((2R,3S)-4,4,4-trifluoro-3-hydroxy-3-methylbutan-2-yl)-1H-indole-5-carbonitrile] are “spared the prostate” and “favorable levator ani hypertrophy”.

`C[C@@H](n1ccc2c(C(F)(F)F)c(C#N)ccc21)[C@](C)(O)C(F)(F)F` [Example 53, 1-((2R,3S)-4,4,4-Trifluoro-3-hydroxy-3-methylbutan-2-yl)-4-(trifluoromethyl)-1H-indole-5-carbonitrile]: in test [1], the prostate sparing result is given as “spared the prostate” and the levator ani hypertrophy result was “favorable levator ani hypertrophy”. In the same order, the values of `C[C@H](CS(C)(=O)=O)n1ccc2c(C(F)(F)F)c(C#N)ccc21` [Example 27, (R)-1-(1-(Methylsulfonyl)propan-2-yl)-4-(trifluoromethyl)-1H-indole-5-carbonitrile] are “spared the prostate” and “favorable levator ani hypertrophy”. Turning to `Cc1cc2c(C(F)(F)F)c(C#N)ccc2n1C(C)CS(C)(=O)=O` (stereo not shown) [Example 9, 2-Methyl-1-(1-(methylsulfonyl)propan-2-yl)-4-(trifluoromethyl)-1H-indole-5-carbonitrile], in test [1], the prostate sparing result is given as “spared the prostate” and the levator ani hypertrophy entry is given as “favorable levator ani hypertrophy”.
